One assay has as its system Lmna G609G/+ mouse. Description: Heart rate (electrocardiographic analysis). Particulars: LMNA G609G/+ mice, SLC-D011 for 6 weeks. The assay is classed as in vivo. An excerpt: Fig. 4 Oral administration of SLC-D011 suppresses premature aging features. A Gross morphology of SLC-D011-treated (D011) mice at 8 weeks old. Body size of treated mouse was apparently larger than that of the untreated control (Con) mouse. B Oral administration of SLC-D011 increases body weights of Lmna^G609G/G609G mice. Compared with untreated control group, body weight of treated mouse was increased by ~35%, *p < 0.05. C Oral administration of SLC-D011 extends the life span of Lmna^G609G/G609G mouse. SLC-D011 in monoolein-based solution was treated by oral gavage (50 mg/kg, daily) from 5 weeks old. […] E Grip test of Lmna^G609G/+ mice at 41-week-old was performed after administration of SLC-D011 for 6 weeks. The test was repeated 10 times for each mouse (n > 4), **p < 0.001. Data are presented as mean ± SD. […] H Anti-aging effects of single treatment of SLC-D011 or lonafarnib were measured in HGPS patients-derived cells (AG11513, AG03199, AG11498, and AG03198, Coriell Cell Repositories). […] No unit is printed with them; the x axis reads Age (weeks). / Panel C: Ave=16.8 / Max=18 are printed beside the dashed curve of the control (Con). […]
For analysis of heart rate, mice were anesthetized with 2.5% isoflurane and monitored using LOGIQ E9 (GE Healthcare). […] Each estimate given corresponded to total reads measured ten times, excluding the minimum and the maximum from each group of animals.

Another assay has as its target T1, progerin (Mus musculus, UniProt P48678, DEL608-657).
T1 construct: Lamin A/C and progerin amounts in tissue samples including lung, liver, and kidney; from tissue; host or cells: lung, liver and kidney of Lmna G609G/+ mice
T1 sequence (P48678 with tags, fused parts or gaps DEL608-657): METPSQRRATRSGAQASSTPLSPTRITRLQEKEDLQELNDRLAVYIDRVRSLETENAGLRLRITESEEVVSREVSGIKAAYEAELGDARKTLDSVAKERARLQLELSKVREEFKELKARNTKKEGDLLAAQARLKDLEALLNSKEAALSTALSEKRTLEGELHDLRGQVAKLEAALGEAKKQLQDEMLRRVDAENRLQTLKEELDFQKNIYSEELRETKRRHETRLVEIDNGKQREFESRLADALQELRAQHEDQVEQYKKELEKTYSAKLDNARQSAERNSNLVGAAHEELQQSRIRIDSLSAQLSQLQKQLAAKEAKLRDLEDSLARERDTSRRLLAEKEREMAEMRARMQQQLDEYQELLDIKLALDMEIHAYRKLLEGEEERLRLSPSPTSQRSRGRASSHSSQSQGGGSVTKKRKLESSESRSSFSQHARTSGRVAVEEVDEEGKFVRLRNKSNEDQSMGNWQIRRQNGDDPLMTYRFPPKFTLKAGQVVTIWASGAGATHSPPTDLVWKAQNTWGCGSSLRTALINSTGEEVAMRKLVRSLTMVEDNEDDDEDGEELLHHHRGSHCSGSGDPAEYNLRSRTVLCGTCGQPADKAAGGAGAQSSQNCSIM
Description: Western blot of progerin and H3K9me3 in tissue samples (lung, liver, kidney). The class given is in vivo. Particulars: for H3K9me3 intensity / Progerin intensity: D011-treated LmnaG609G/+ mice. The text has this: Fig. 4 Oral administration of SLC-D011 suppresses premature aging features. A Gross morphology of SLC-D011-treated (D011) mice at 8 weeks old. Body size of treated mouse was apparently larger than that of the untreated control (Con) mouse. B Oral administration of SLC-D011 increases body weights of Lmna^G609G/G609G mice. Compared with untreated control group, body weight of treated mouse was increased by ~35%, *p < 0.05. C Oral administration of SLC-D011 extends the life span of Lmna^G609G/G609G mouse. SLC-D011 in monoolein-based solution was treated by oral gavage (50 mg/kg, daily) from 5 weeks old. […] E Grip test of Lmna^G609G/+ mice at 41-week-old was performed after administration of SLC-D011 for 6 weeks. The test was repeated 10 times for each mouse (n > 4), **p < 0.001. Data are presented as mean ± SD. F Electrocardiographic analysis of Lmna^G609G/+ mice (untreated: n = 4; SLC-D011: n = 4) and Lmna^+/+ mice (n = 3) after treatment with SLC-D011 for 6 weeks (unpaired t test). Heart rate is shown as beats per minute (bpm). G Dental abnormalities in Lmna^G609G/+ mice (untreated: n = 4; SLC-D011: n = 5) and Lmna^+/+ mice (n = 4). […] Lower incisors of Lmna^G609G transgenic mice grow toward the palate because of malocclusion. Oral administration of SLC-D011 for 6 weeks alleviates dental abnormalities. H Anti-aging effects of single treatment of SLC-D011 or lonafarnib were measured in HGPS patients-derived cells (AG11513, AG03199, AG11498, and AG03198, Coriell Cell Repositories). Single treatment of SLC-D011, compared to lonafarnib, reduced the expression of progerin but induced the expression of H3K9me3 and cyclin B1 in HGPS cells more effectively. HGPS patients-derived cells were treated with SLC-D011 (500 nM) or lonafarnib (500 nM) for 3 days. I Scheme of interaction between lamin A and progerin. SLC-D011 interrupts the interaction between lamin A and progerin through direct binding to the C-terminal region of progerin. “Con” and “untreated” mean vehicle (monoolein-based solution)-treated mouse group or vehicle (DMSO)-treated cells. TEXT PRINTED IN THE PICTURE: (C) D011: Kaplan-Meier survival curve in Lmna^G609G/G609G: Ave=25.2; Kaplan-Meier survival curve in Lmna^G609G/G609G: Max=26 DOUBTS OF THE COPYIST ABOUT THIS PICTURE: Panel C: Ave=25.2 / Max=26 are assigned to D011 only because they are printed beside the solid curve. No unit is printed with them; the x axis reads Age (weeks). / Panel C: Ave=16.8 / Max=18 are printed beside the dashed curve of the control (Con). They are left out because Con is not a substance.
Lamin A/C and progerin amounts in tissue samples including lung, liver, and kidney analysis of two Lmna^+/+, four untreated Lmna^G609G/+, and four D011-treated Lmna^G609G/+ mice were evaluated by western blotting. Proteins were extracted with RIPA lysis buffer supplemented with protease inhibitors. Tissues were sonicated and centrifuged at 15,000 rpm for 15 min at 4 °C. Protein concentration was determined by Coomassie-blue staining. Cellular lysates in SDS-containing sample buffer were inactivated by heating at 98 °C for 7 min. Proteins were loaded onto 8% SDS-PAGE gels and transferred to PVDF membranes. These membranes were blocked with 3% skimmed milk in TBS-T buffer for 1 h and incubated with primary antibodies including mouse monoclonal anti-progerin (1:100; sc-81611; Santa Cruz Biotechnology), mouse monoclonal anti-lamin A/C (1:500; MANLAC1; Developmental Studies Hybridoma Bank), and rabbit polyclonal anti-H3K9me3 (1;2000; Ab8898; Abcam) at 4°C overnight. Blots were then incubated with 1:10,000 goat anti-mouse (Pierce, Thermo Fisher Scientific) or 1:10,000 goat anti-rabbit (Pierce, Thermo Fisher Scientific) IgG (HRP conjugated) in 1% skimmed milk and washed with TBS-T buffer. Bands were developed using and Intron ECL detection system and quantified using Image J (National Institute of Health, NIH).
Fig. S10. […]
For orientation: A western blot detects proteins with antibodies after separation by electrophoresis.

[1] abbreviates: Lmna G609G/+ mice, oral 50 mg/kg daily for 8 weeks.

The values that follow come from PMC7782499, “Progerinin, an optimized progerin-lamin A binding inhibitor, ameliorates premature senescence phenotypes of Hutchinson-Gilford progeria syndrome” (Communications Biology, 2021).

Values joined by “and” are separate entries in the source; they are usually repeats but may differ in a detail not shown here. Equal values may be shown once.

`CC1(C)Oc2cc3oc(=O)ccc3cc2C[C@@H]1OC/C=C/c1ccccc1` [SLC-D011]: in the assay on Lmna G609G/+ mouse, the Heart rate was 462 bmp and 447 bmp and 432 bmp and 454 bmp. Besides, the H3K9me3 intensity on progerin (Kidney, Ave) was 6.21 AU and 9.731 AU; at progerin (Kidney, individual replicate), 7.144 AU and 5.202 AU and 6.284 AU and 10.9311 AU and 8.4105 AU and 9.851 AU; at progerin (Liver, Ave), 4.595 AU and 7.491 AU; at progerin (Liver, individual replicate), 4.833 AU and 4.0316 AU and 4.921 AU and 8.228 AU and 7.116 AU and 7.128 AU; at progerin (Lung, individual replicate), 2.3231 AU and 2.511 AU and 2.358 AU and 5.884 AU and 5.376 AU and 5.841 AU. For the same compound, the Progerin intensity was 4.42 AU and 7.581 AU on progerin (Kidney, Ave); 5.843 AU and 4.429 AU and 2.988 AU and 9.2 AU and 12.7266 AU and 0.8173 AU on progerin (Kidney, individual replicate); 1.2695 AU and 1.954 AU and 0.8023 AU and 0.5773 AU and 0.1521 AU and 0.4975 AU at progerin (Liver, individual replicate); 1.397 AU and 0.9832 AU at progerin (Lung, Ave); 2.376 AU and 1.606 AU and 0.2082 AU and 2.142 AU and 0.6098 AU and 0.1984 AU at progerin (Lung, individual replicate). Moreover, at progerin (setting [1]), the “H3K9me3 level in tissues” value is “increase of H3K9me3”. The “Progerin level in tissues” value on progerin (setting [1]) was “Obvious reduction of progerin”.
